Results taken from patent US11867660B2, “Electronic control of the pH of a solution close to an electrode surface” (Robert Bosch GmbH, priority 2015, dated 2024).

What was measured:
[1] = Electro-oxidation/reduction of species at indium tin oxide electrode (voltammetry); assay type: physicochemical
Source text: FIG. 7B: Cyclic voltammetric study of the oxidation of Ascorbic acid test in ITO electrodes. Current increase around 0.25V indicates the start of oxidation at ITO electrodes.
Electrode material used: The electrode material was indium tin oxide. This is a semiconducting electrode surface with very large potential window in an aqueous solution.
Oxidation of ascorbic acid at the electrode surfaces produced H^+ ions and changed the electrode surface pH to a more acidic state: AH2→A+2H^++2e^−, where AH2 is ascorbic acid ([…]) (as shown in FIG. 5). The electrode potential at which it oxidizes was less than 0.5V for Indium tin oxide material vs Ag/AgCl reference electrode (as shown in FIG. 7). This potential was less than the voltages needed for the oxygen evolution reaction in aqueous solution. Higher electrode potential (e.g. >1V for ITO electrodes in just phosphate buffer) can damage the PEG layer (as shown in FIG. 8). The ascorbic acid also acted as a sacrificial species to prevent electrochemical degradation of the surface chemistry.
Reduction of benzoquinone (C6H4O2) into Hydroquinone (C6H6O2) can produce OH− ions at −0.1V: BQ+2e^−+2H2O→HQ+2OH^− This reduction reaction increased the pH at the electrode interface.

[2] = molecular target: Green Fluorescent Protein (GFP) (Aequorea victoria, UniProt P42212); experiment: GFP fluorescence intensity after incubation with benzoquinones (protein stability); assay type: biochemical; settings: 0.5 mM benzoquinone, phosphate buffered saline, 30 min
Source text: Para-benzoquinones and ortho-benzoquinones (compounds 2, 4, 6, and 9 in FIG. 22) are susceptible to nucleophilic attack at the double bond of the ring (positions 2, 3, 5 and 6 in structure 2 of FIG. 22, positions 3, 4, 5 and 6 in structure 4 of FIG. 22, and positions 2 and 3 in structure 6 of FIG. 22). Introducing substituents at some or all of those positions can mitigate the problem of nucleophilic attack. For example, 1,4-benzoquinone (structure 2 in FIG. 22, where R1, R2, R3 and R4 are H) undergoes Michael addition reaction with amino groups of proteins (Loomis et al., Phytochemistry, 5, 423, (1966) and U.S. Pat. No. 6,753,312 B2). […] Fluorescence intensity of Green Fluorescent Protein (GFP) was measured after incubation with three different benzoquinones in phosphate buffered saline for 30 min (concentration of benzoquinones was 0.5 mM). The difference in fluorescence intensity indicates the varied effect that the different substitutions in benzoquinones have on the stability of GFP. Fluorescence intensity of GFP is indicative of its structural integrity. Losses in fluorescence intensity usually indicate loss of its tertiary structure (protein denaturation) (Yin D. X., Zhu L., Schimke R. T. Anal. Biochem. 1996, 235:195-201).

SMILES	start of oxidation (current increase), cyclic voltammetry ([1]; ITO electrodes)	electrode potential at which it oxidizes ([1]; Indium tin oxide vs Ag/AgCl reference electrode)	potential of reduction into hydroquinone producing OH- ions [1]	loss in GFP fluorescence intensity [2]
O=C1O[C@H]([C@@H](O)CO)C(O)=C1O [ascorbic acid]	around 0.25 V	less than 0.5 V		
O=C1C=CC(=O)C=C1 [unsubstituted benzoquinone, 1,4-benzoquinone]			−0.1 V	25%
